According to patent US12364733B1, “Method for treating septic shock” (Inotrem, priority 2018, dated 2025):

System: septic shock patients
Assay: Phase IIa clinical trial with nangibotide in septic shock patients: SOFA score evolution
Type: in vivo, human
Description: This was a randomized, double-blind, two-stage, placebo-controlled study. As described in FIG. 7, the study was composed of 2 stages with a similar treatment regimen, in which 0.3, 1.0 or 3.0 mg/kg/h of nangibotide (corresponding to peptide LR12, having an amino acid sequence as set forth in SEQ ID NO: 9, also known as motrem) was tested versus placebo. All patients with a diagnosis of septic shock were considered for study participation. All potential study patients underwent standard care management procedures. Patients with evidence of septic shock according to the Sepsis-3 definition (Singer et al, JAMA 2016) were considered for inclusion (i.e., patients suffering from sepsis and having (i) persisting hypotension requiring vasopressors to maintain their mean arterial pressure ≥65 mm Hg and (ii) a serum lactate level >2 mmol/L (18 mg/dL) despite adequate volume resuscitation).
After screening for eligibility, patients were randomized to one of the treatment arms. Then, they received either a 5 mg/kg loading dose of nangibotide over 15 minutes followed by a continuous intravenous (i.v.) infusion of nangibotide or a matching placebo on top of standard of care. Treatment with study drug was initiated as early as possible, but no later than 24 hours after the onset of septic shock, defined by the start of vasopressor therapy. Patients were treated until 12 (±2) hours after the resolution of their septic shock (defined as vasopressor withdrawal) with a maximum treatment duration of 5 days (120 hours).
Adverse events (AEs) were coded using the MedDRA dictionary version 18.1. Treatment-emergent adverse events (TEAEs) were summarized and listed. Analysis was performed in 49 septic shock patients. The demographic and baseline characteristics were summarized in a descriptive fashion within each population: categorical variables were summarized by contingency tables (frequencies and percentages). sTREM-1 levels at day 1 were also described (mean, standard deviation, standard error, median, quartiles and range, minimum and maximum values). Mortality rates were reported by frequency and percentage. For continuous endpoints, i.e., the sequential organ failure assessment (SOFA), missing data were imputed using LOCF (Last Observation Carry-Forward). For time-to-event analyses, i.e., duration of invasive mechanical ventilation (IMV), duration of continuous renal replacement therapy (CRRT), survival, censored data techniques were utilized. In addition, a sensitivity analysis of time to event data (except survival) was performed using censoring at maximum limit for the corresponding observation period (i.e., either day 28 or day 90). […] The following comparisons were made: each nangibotide dose arm to placebo, all nangibotide doses combined versus placebo, and dose-response using an ordinal trend test. Exploratory composite endpoint: incidence (number and proportion) of patients alive at day 28 and free of vasopressor, free of IMV and free of CRRT were summarized by treatment and compared between treatments with a Fisher's exact test. For pharmacodynamic markers, log transformed data were represented as percentage change from baseline at day 5 or End of Infusion (EOI) if end of infusion was stopped before day 5. […] “All nangibotide” refers to analyses obtained by pooling data from 0.3, 1 and 3 mg/kg/h nangibotide-treated groups.

[1] = patients with high sTREM-1 at baseline (above median 433 pg/mL), Day 1, 0.3 mg/kg/h
[2] = patients with high sTREM-1 at baseline (above median 433 pg/mL), Day 1, 1.0 mg/kg/h
[3] = patients with high sTREM-1 at baseline (above median 433 pg/mL), Day 1, 3.0 mg/kg/h
[4] = patients with high sTREM-1 at baseline (above median 433 pg/mL), Day 1, all nangibotide doses pooled
[5] = patients with high sTREM-1 at baseline (above median 433 pg/mL), Day 2, 0.3 mg/kg/h
[6] = patients with high sTREM-1 at baseline (above median 433 pg/mL), Day 2, 1.0 mg/kg/h
[7] = patients with high sTREM-1 at baseline (above median 433 pg/mL), Day 2, 3.0 mg/kg/h
[8] = patients with high sTREM-1 at baseline (above median 433 pg/mL), Day 2, all nangibotide doses pooled
[9] = patients with high sTREM-1 at baseline (above median 433 pg/mL), Day 3, 0.3 mg/kg/h
[10] = patients with high sTREM-1 at baseline (above median 433 pg/mL), Day 3, 1.0 mg/kg/h
[11] = patients with high sTREM-1 at baseline (above median 433 pg/mL), Day 3, 3.0 mg/kg/h
[12] = patients with high sTREM-1 at baseline (above median 433 pg/mL), Day 3, all nangibotide doses pooled
[13] = patients with high sTREM-1 at baseline (above median 433 pg/mL), Day 4, 0.3 mg/kg/h
[14] = patients with high sTREM-1 at baseline (above median 433 pg/mL), Day 4, 1.0 mg/kg/h
[15] = patients with high sTREM-1 at baseline (above median 433 pg/mL), Day 4, 3.0 mg/kg/h
[16] = patients with high sTREM-1 at baseline (above median 433 pg/mL), Day 4, all nangibotide doses pooled
[17] = patients with high sTREM-1 at baseline (above median 433 pg/mL), Day 5, 1.0 mg/kg/h
[18] = patients with low sTREM-1 at baseline (below median 433 pg/mL), Day 1, 0.3 mg/kg/h
[19] = patients with low sTREM-1 at baseline (below median 433 pg/mL), Day 1, 1.0 mg/kg/h
[20] = patients with low sTREM-1 at baseline (below median 433 pg/mL), Day 1, 3.0 mg/kg/h
[21] = patients with low sTREM-1 at baseline (below median 433 pg/mL), Day 1, all nangibotide doses pooled
[22] = patients with low sTREM-1 at baseline (below median 433 pg/mL), Day 2, 0.3 mg/kg/h
[23] = patients with low sTREM-1 at baseline (below median 433 pg/mL), Day 2, 1.0 mg/kg/h
[24] = patients with low sTREM-1 at baseline (below median 433 pg/mL), Day 2, 3.0 mg/kg/h
[25] = patients with low sTREM-1 at baseline (below median 433 pg/mL), Day 2, all nangibotide doses pooled
[26] = patients with low sTREM-1 at baseline (below median 433 pg/mL), Day 3, 0.3 mg/kg/h
[27] = patients with low sTREM-1 at baseline (below median 433 pg/mL), Day 3, 1.0 mg/kg/h

## nangibotide (LQEEDAGEYGCM; TLT-1 peptide)
Patients with baseline sTREM-1 above the median (above 433 pg/mL), pharmacodynamic parameters, medical support, SOFA score
  nangibotide efficacy by baseline sTREM-1 subgroup: more pronounced
[1]
  SOFA score evolution (change versus baseline, LOCF), LSMean (SE): 0.16 (0.60)
  SOFA score, estimated difference (SE) vs. placebo: 0.14 (0.90)
[2]
  SOFA score evolution (change versus baseline, LOCF), LSMean (SE): −0.50 (0.59)
  SOFA score, estimated difference (SE) vs. placebo: −0.52 (0.89)
[3]
  SOFA score evolution (change versus baseline, LOCF), LSMean (SE): −0.38 (0.51)
  SOFA score, estimated difference (SE) vs. placebo: −0.40 (0.84)
[4]
  SOFA score evolution (change versus baseline, LOCF), LSMean (SE): −0.24 (0.33)
  SOFA score, estimated difference (SE) vs. placebo: −0.26 (0.74)
[5]
  SOFA score evolution (change versus baseline, LOCF), LSMean (SE): −1.52 (0.80)
  SOFA score, estimated difference (SE) vs. placebo: −1.14 (1.21)
[6]
  SOFA score evolution (change versus baseline, LOCF), LSMean (SE): −2.00 (0.80)
  SOFA score, estimated difference (SE) vs. placebo: −1.63 (1.19)
[7]
  SOFA score evolution (change versus baseline, LOCF), LSMean (SE): −0.50 (0.69)
  SOFA score, estimated difference (SE) vs. placebo: −0.13 (1.13)
[8]
  SOFA score evolution (change versus baseline, LOCF), LSMean (SE): −1.34 (0.44)
  SOFA score, estimated difference (SE) vs. placebo: −0.97 (1.00)
[9]
  SOFA score evolution (change versus baseline, LOCF), LSMean (SE): −2.73 (0.89)
  SOFA score, estimated difference (SE) vs. placebo: −2.64 (1.34)
[10]
  SOFA score evolution (change versus baseline, LOCF), LSMean (SE): −2.00 (0.89)
  SOFA score, estimated difference (SE) vs. placebo: −1.90 (1.32)
[11]
  SOFA score evolution (change versus baseline, LOCF), LSMean (SE): −0.39 (0.77)
  SOFA score, estimated difference (SE) vs. placebo: −0.30 (1.25)
[12]
  SOFA score evolution (change versus baseline, LOCF), LSMean (SE): −1.71 (0.49)
  SOFA score, estimated difference (SE) vs. placebo: −1.61 (1.11)
[13]
  SOFA score evolution (change versus baseline, LOCF), LSMean (SE): −3.22 (0.94)
  SOFA score, estimated difference (SE) vs. placebo: −2.70 (1.41)
[14]
  SOFA score evolution (change versus baseline, LOCF), LSMean (SE): −1.83 (0.93)
  SOFA score, estimated difference (SE) vs. placebo: −1.31 (1.39)
[15]
  SOFA score evolution (change versus baseline, LOCF), LSMean (SE): −0.51 (0.81)
  SOFA score, estimated difference (SE) vs. placebo: 0.00 (1.31)
[16]
  SOFA score evolution (change versus baseline, LOCF), LSMean (SE): −1.85 (0.52)
  SOFA score, estimated difference (SE) vs. placebo: −1.34 (1.16)
Patients with high sTREM-1 at baseline (above median 433 pg/mL), Day 5, 0.3 mg/kg/h
  SOFA score evolution (change versus baseline, LOCF), LSMean (SE): −3.20 (0.90)
Patients with high sTREM-1 at baseline (above median 433 pg/mL), Day 5, 0.3 mg/kg/h, 0.3 mg/kg
  SOFA score, estimated difference (SE) vs. placebo: −2.85 (1.36)
Patients with high sTREM-1 at baseline (above median 433 pg/mL), Day 5, 0.3 mg/kg/h, listed as nangibotide, 0.3 mg/kg
  SOFA score, estimated difference (SE) vs. placebo: −2.85
[17]
  SOFA score evolution (change versus baseline, LOCF), LSMean (SE): −1.83 (0.90)
  SOFA score, estimated difference (SE) vs. placebo: −1.48 (1.34)
Patients with high sTREM-1 at baseline (above median 433 pg/mL), Day 5, 3.0 mg/kg/h
  SOFA score evolution (change versus baseline, LOCF), LSMean (SE): −0.51 (0.78)
Patients with high sTREM-1 at baseline (above median 433 pg/mL), Day 5, 3.0 mg/kg/h, 3 mg/kg
  SOFA score, estimated difference (SE) vs. placebo: −0.16 (1.27)
Patients with high sTREM-1 at baseline (above median 433 pg/mL), Day 5, 3.0 mg/kg/h, listed as nangibotide, 3 mg/kg
  SOFA score, estimated difference (SE) vs. placebo: −0.16
Patients with high sTREM-1 at baseline (above median 433 pg/mL), Day 5, all nangibotide doses pooled
  SOFA score evolution (change versus baseline, LOCF), LSMean (SE): −1.85 (0.50)
Patients with high sTREM-1 at baseline, 0.3 vs 3 mg/kg/h
  dose response of SOFA score difference vs. placebo: inverse dose response
[18]
  SOFA score evolution (change versus baseline, LOCF), LSMean (SE): −1.40 (0.80)
  SOFA score, estimated difference (SE) vs. placebo: 0.29 (1.13)
[19]
  SOFA score evolution (change versus baseline, LOCF), LSMean (SE): −0.01 (0.88)
  SOFA score, estimated difference (SE) vs. placebo: 1.67 (1.20)
[20]
  SOFA score evolution (change versus baseline, LOCF), LSMean (SE): −0.35 (1.06)
  SOFA score, estimated difference (SE) vs. placebo: 1.33 (1.33)
[21]
  SOFA score evolution (change versus baseline, LOCF), LSMean (SE): −.059 (0.53)
  SOFA score, estimated difference (SE) vs. placebo: 1.10 (0.96)
[22]
  SOFA score evolution (change versus baseline, LOCF), LSMean (SE): −2.99 (0.92)
  SOFA score, estimated difference (SE) vs. placebo: −0.86 (1.30)
[23]
  SOFA score evolution (change versus baseline, LOCF), LSMean (SE): −1.62 (1.02)
  SOFA score, estimated difference (SE) vs. placebo: 0.51 (1.38)
[24]
  SOFA score evolution (change versus baseline, LOCF), LSMean (SE): −1.87 (1.22)
  SOFA score, estimated difference (SE) vs. placebo: 0.26 (1.53)
[25]
  SOFA score evolution (change versus baseline, LOCF), LSMean (SE): −2.16 (0.61)
  SOFA score, estimated difference (SE) vs. placebo: −0.03 (1.11)
[26]
  SOFA score evolution (change versus baseline, LOCF), LSMean (SE): −2.68 (1.02)
  SOFA score, estimated difference (SE) vs. placebo: −0.57 (1.44)
[27]
  SOFA score evolution (change versus baseline, LOCF), LSMean (SE): −1.51 (1.13)
  SOFA score, estimated difference (SE) vs. placebo: 0.61 (1.53)
